Some test systems named below: DMS-114; RXF 631; SNB-78; M19-MEL; DMS-273; HOP-18; KM-20L2; LXFL 529; XF498.
What all share (assay): growth of human tumour cells (NCI), 48 h

Structures are written as SMILES. Structures can show the parent of a compound that is named as a salt.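 Assay format: 96-well plates, 48-hour exposure. The concentration for 50% growth inhibition is given as GI50.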 The source made the active and inactive calls. Cut-off read from the data, not from the text of the source: active = GI50 up to about 1.1 µM and inactive = higher. Some results are limits rather than exact numbers.

In the case of `O=C1CCC(=O)C1=NNc1cc(Cl)cc(Cl)c1`, the GI50 in the experiment with DMS-114 is 98.2 µM (inactive); in the experiment on RXF 631 it was > 100 µM (inactive); in the experiment with SNB-78, > 100 µM (inactive); in the experiment with M19-MEL, > 100 µM (inactive); with DMS-273, > 100 µM (inactive); in the experiment with HOP-18 it was > 100 µM (inactive).
For `O=C(Nc1ccccc1[N+](=O)[O-])/C(=N/Nc1cccc(Cl)c1)c1c(O)c2ccccc2oc1=O`, the GI50 in the experiment with KM-20L2 is > 100 µM (inactive); in the experiment on DMS-114 it was 16.2 µM (inactive); in the experiment with M19-MEL, > 100 µM (inactive); in the experiment with DMS-273, 29.6 µM (inactive); with HOP-18 it was > 100 µM (inactive); in the experiment with LXFL 529, 31 µM (inactive).
Turning to `O=c1[nH]c(=O)n(C2CC(O)C(CO)O2)cc1C(F)(C(F)(F)F)C(F)(F)F` (centres undefined), the GI50 with KM-20L2, in the experiment with DMS-114, in the experiment on XF498, in the experiment on SNB-78, with M19-MEL and in the experiment with DMS-273 was > 100 µM (inactive) in each case. For the same compound, the GI50 in the experiment on HOP-18 was 84.5 µM (inactive); in the experiment with LXFL 529, > 100 µM (inactive).
Regarding `CNC1C(O)CC(OC2C/C=C(\C)C/C(C)=C/C=C/CCC(C)CNC(=O)/C=C/C=C/C2C)OC1C` (centres undefined), the GI50 in the experiment on KM-20L2 was 0.63 µM (active); with DMS-114 it was 0.463 µM (active); in the experiment with RXF 631, 0.206 µM (active); in the experiment with XF498, 1.68 µM (inactive); in the experiment with SNB-78, 1.66 µM (inactive); in the experiment on M19-MEL it was 0.714 µM (active). Moreover, the GI50 is 0.188 µM (active) with DMS-273, 1.77 µM (inactive) with HOP-18 and 0.14 µM (active) in the experiment with LXFL 529.
`CCCCN(CC)C(=O)C(=O)Cc1nc2ccc(C(=O)c3ccccc3)cc2nc1O`: the GI50 with KM-20L2 is 31.7 µM (inactive); with DMS-114, 53.7 µM (inactive); with SNB-78 it was 49.5 µM (inactive); in the experiment with M19-MEL it was > 100 µM (inactive); with DMS-273, 53 µM (inactive); in the experiment with LXFL 529, 47.1 µM (inactive).
As for `COC(=O)OCC1OC(N2C(=O)NC(=O)C(I)C2N=[N+]=[N-])CC1OC(=O)OC` (centres undefined), the GI50 in the experiment on KM-20L2, in the experiment with RXF 631, with XF498, with SNB-78, in the experiment on M19-MEL and with DMS-273 was > 100 µM (inactive) each time. In the experiment on LXFL 529, the GI50 was > 100 µM (inactive).
As to `CN(C)c1ccc(/C=c2\sc3nnc(-c4ccco4)n3c2=O)cc1`, the GI50 with KM-20L2, in the experiment with DMS-114, with RXF 631, with XF498, in the experiment with SNB-78 and in the experiment with M19-MEL was > 100 µM (inactive) in each case. Further, the GI50 with DMS-273, with HOP-18 and in the experiment on LXFL 529 was > 100 µM (inactive) each time.
For `O=C1CSc2ccncc2N1`, the GI50 with KM-20L2, in the experiment with DMS-114, in the experiment with XF498, in the experiment on M19-MEL, in the experiment with DMS-273 and with LXFL 529 was > 100 µM (inactive) each time.
As for `OCC(CO)C1c2cccc3ccc4cccc1c4c23`, the GI50 with KM-20L2, in the experiment on DMS-114, in the experiment on RXF 631, in the experiment with XF498, with SNB-78 and in the experiment on M19-MEL was > 100 µM (inactive) throughout. Also, the GI50 in the experiment with DMS-273 and with HOP-18 was > 100 µM (inactive) each time.
For the compound `Cn1c(=O)c2[nH]cnc2n(CC(=O)O)c1=O`, the GI50 with KM-20L2, in the experiment on DMS-114, in the experiment on RXF 631, in the experiment on XF498, in the experiment with SNB-78 and in the experiment with M19-MEL was > 100 µM (inactive) in each case. The GI50 in the experiment with DMS-273 and with LXFL 529 was > 100 µM (inactive) each time.
With `Nc1nc(NCCO)c(N=O)c(=O)[nH]1`, the GI50 in the experiment with KM-20L2, in the experiment on DMS-114, with XF498, in the experiment with SNB-78, with M19-MEL and with DMS-273 was > 100 µM (inactive) in each case. Further, the GI50 with HOP-18 and in the experiment on LXFL 529 was > 100 µM (inactive) in each case.
`CC(C)(C)c1cc(C(O)(C(F)(F)F)C(F)(F)F)c2c(c1)C(C(F)(F)F)(C(F)(F)F)OC(C(C)(C)C)N2` (centres undefined): the GI50 in the experiment with KM-20L2 was 2.86 µM (inactive); in the experiment on DMS-114, 1.12 µM (inactive); with RXF 631, 2.15 µM (inactive); in the experiment on XF498, < 0.01 µM (active); in the experiment with SNB-78, 2.75 µM (inactive); with M19-MEL, 2.47 µM (inactive). In addition, the GI50 in the experiment on DMS-273 was 2.18 µM (inactive); in the experiment on HOP-18, 2.55 µM (inactive); in the experiment on LXFL 529, 2.82 µM (inactive).
Turning to `NC(=O)NNC(=O)NC12CC3CC(CC(C3)C1)C2`, the GI50 in the experiment with KM-20L2, with DMS-114, in the experiment on XF498, with SNB-78, in the experiment on M19-MEL and in the experiment with DMS-273 was > 100 µM (inactive) in each case. Besides, the GI50 with HOP-18 and in the experiment on LXFL 529 was > 100 µM (inactive) in each case.
For `CCOC(=O)C12CCCC1(O)N(NC(=O)c1ccccc1)C(C)=C2C(=O)OC` (centres undefined), the GI50 in the experiment with KM-20L2, with SNB-78, in the experiment on M19-MEL, in the experiment on DMS-273, in the experiment with HOP-18 and in the experiment with LXFL 529 was > 100 µM (inactive) throughout.
Take `COC(=O)C(=O)C(C(=O)C=C(C)C)C(=O)C(=O)Nc1ccc(C)cc1C` (centres undefined): the GI50 with KM-20L2, with DMS-114, in the experiment with XF498, in the experiment on SNB-78, in the experiment on M19-MEL and in the experiment on DMS-273 was > 100 µM (inactive) each time. The GI50 with HOP-18 and in the experiment on LXFL 529 was > 100 µM (inactive) throughout.
Consider `CCCNC(=S)NNC(=O)CSc1nc(-c2ccccc2)c(-c2ccccc2)[nH]1`, for which the GI50 is 84.1 µM (inactive) with KM-20L2; > 100 µM (inactive) in the experiment on DMS-114; 47.4 µM (inactive) in the experiment on XF498; > 100 µM (inactive) in the experiment with SNB-78; 45 µM (inactive) in the experiment with M19-MEL; 34.8 µM (inactive) in the experiment with DMS-273. Besides, the GI50 in the experiment on LXFL 529 was 27.9 µM (inactive).
Consider `COC(=O)/C=C(\C(=O)OC)c1c2c3c(cc(OC)c(OC)c3c3ccccc13)CCN2C`, for which the GI50 with KM-20L2 is 12.6 µM (inactive); with DMS-114, 27.9 µM (inactive); in the experiment with RXF 631, 33.8 µM (inactive); in the experiment on SNB-78, 37.8 µM (inactive); in the experiment with M19-MEL it was 33 µM (inactive); with DMS-273, 22.6 µM (inactive). Also, the GI50 in the experiment with HOP-18 was 64.9 µM (inactive); in the experiment with LXFL 529, 42.1 µM (inactive).
As to `CC1CC[P+](c2ccccc2)(c2ccccc2)CC1`, the GI50 with KM-20L2 is 89.1 µM (inactive); with DMS-114, 50.1 µM (inactive); in the experiment with XF498 it was 25.1 µM (inactive); in the experiment with SNB-78, > 100 µM (inactive); in the experiment with M19-MEL, 27.6 µM (inactive); with DMS-273 it was 68.9 µM (inactive). Also, the GI50 with HOP-18 was > 100 µM (inactive); in the experiment on LXFL 529 it was 31.7 µM (inactive).
In the case of `CC/C(=N\NS(=O)(=O)c1ccccc1)c1ccccc1`, the GI50 in the experiment with KM-20L2, with RXF 631, in the experiment with XF498, with SNB-78, in the experiment on M19-MEL and in the experiment with DMS-273 was > 100 µM (inactive) in each case. The GI50 with HOP-18 and in the experiment on LXFL 529 was > 100 µM (inactive) in each case.
`Cc1cc(C)nc(NS(=O)(=O)c2ccc(NC(=O)c3ccc(Cl)c4c(Nc5ccc(S(=O)(=O)Nc6nc(C)cc(C)n6)cc5)c5ccccc5nc34)cc2)n1`: the GI50 in the experiment with KM-20L2 was 6.43 µM (inactive); in the experiment on DMS-114 it was 2.87 µM (inactive); in the experiment on RXF 631 it was 4.29 µM (inactive); in the experiment with XF498, > 100 µM (inactive); with SNB-78 it was 3.71 µM (inactive); in the experiment with M19-MEL it was 2.91 µM (inactive). In addition, the GI50 in the experiment on DMS-273 was 6.34 µM (inactive); in the experiment on HOP-18, 2.32 µM (inactive); in the experiment with LXFL 529, 4.69 µM (inactive).
As for `CC(C)CC12CC3CCC(CNC1=O)C32C` (centres undefined), the GI50 was 78 µM (inactive) in the experiment on DMS-114; > 100 µM (inactive) in the experiment with XF498; > 100 µM (inactive) in the experiment on SNB-78; > 100 µM (inactive) in the experiment on M19-MEL; > 100 µM (inactive) in the experiment on DMS-273; > 100 µM (inactive) in the experiment on HOP-18. For the same compound, in the experiment on LXFL 529, the GI50 was > 100 µM (inactive).
Consider `COc1ccc2[nH]c3c(cnn4cnnc34)c2c1`, for which the GI50 in the experiment with KM-20L2, with DMS-114, in the experiment on RXF 631, with M19-MEL, in the experiment on DMS-273 and in the experiment with HOP-18 was > 100 µM (inactive) throughout. Also, the GI50 in the experiment with LXFL 529 is > 100 µM (inactive).
For `COC(=O)C1=CO[C@@H](C)[C@@H]2Cn3ccc4c5ccccc5nc-4c3C[C@H]12` [ALSTONINE HYDROCHLORIDE], the GI50 in the experiment on KM-20L2 was > 100 µM (inactive); with DMS-114, > 100 µM (inactive); in the experiment on RXF 631, > 100 µM (inactive); with XF498, 49.5 µM (inactive); in the experiment on SNB-78 it was > 100 µM (inactive); in the experiment on M19-MEL, > 100 µM (inactive). Besides, the GI50 was > 100 µM (inactive) in the experiment on DMS-273, 32.7 µM (inactive) with HOP-18 and > 100 µM (inactive) in the experiment on LXFL 529.
As to `COc1ccc(/C=C/c2cc(OC)cc(OC)c2)cc1` [TRISMETHOXYRESVERATROL], the GI50 is 3.15 µM (inactive) with KM-20L2; 3.5 µM (inactive) with DMS-114; 4.2 µM (inactive) in the experiment with RXF 631; 8.43 µM (inactive) in the experiment on XF498; 3.98 µM (inactive) in the experiment with SNB-78; 6.31 µM (inactive) in the experiment on M19-MEL. The GI50 in the experiment on DMS-273 was 3.79 µM (inactive); in the experiment with HOP-18 it was > 24.3 µM (inactive); in the experiment with LXFL 529, 4.86 µM (inactive).
